Experimental data reported in PubChem BioAssay (NCI).
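Cells were grown in 96-well plates and exposed to each compound for 48 hours at five concentrations; endpoints were interpolated linearly between bracketing concentrations, or set to the highest concentration if not reached. TGI: concentration producing complete growth inhibition.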

Assays:
Assay in all cases: NCI tumour cell line growth inhibition, 48 h
[1] = tested on: MDA-N
[2] = tested on: 786-0 renal
[3] = tested on: SNB-19 CNS
[4] = tested on: OVCAR-3 ovarian
[5] = tested on: NCI-H460 lung
[6] = tested on: UACC-62 melanoma
[7] = tested on: MCF7 breast
[8] = tested on: KM12 colon
[9] = tested on: SF-295 CNS
[10] = tested on: SK-MEL-5 melanoma
[11] = tested on: HT29 colon
[12] = tested on: CCRF-CEM leukemia
[13] = tested on: UO-31 renal
[14] = tested on: HL-60(TB) leukemia
[15] = tested on: NCI/ADR-RES ovarian
[16] = tested on: MALME-3M melanoma
[17] = tested on: HCT-116 colon
[18] = tested on: ACHN renal
[19] = tested on: COLO 205 colon
[20] = tested on: SW-620 colon
[21] = tested on: SN12C renal
[22] = tested on: SK-OV-3 ovarian
[23] = tested on: IGROV1 ovarian
[24] = tested on: K-562 leukemia
[25] = tested on: A549 NSCLC
[26] = tested on: RPMI-8226 leukemia
[27] = tested on: NCI-H23 lung
[28] = tested on: PC-3 prostate
[29] = tested on: OVCAR-8 ovarian
[30] = tested on: UACC-257 melanoma
[31] = tested on: HS 578T breast
[32] = tested on: SR leukemia
[33] = tested on: MDA-MB-435
[34] = tested on: M14 melanoma
[35] = tested on: SK-MEL-28 melanoma
[36] = tested on: SK-MEL-2 melanoma
[37] = tested on: EKVX NSCLC
[38] = tested on: BT-549 breast
[39] = tested on: OVCAR-5 ovarian
[40] = tested on: HOP-62 NSCLC
[41] = tested on: RXF 393 renal
[42] = tested on: U251 CNS
[43] = tested on: LOX IMVI melanoma
[44] = tested on: HCT-15 colon
[45] = tested on: NCI-H522 lung
[46] = tested on: DU-145 prostate
[47] = tested on: SF-268 CNS
[48] = tested on: A498 renal
[49] = tested on: NCI-H226 lung
[50] = tested on: CAKI-1 renal
[51] = tested on: MDA-MB-231 breast
[52] = tested on: T-47D breast
[53] = tested on: MOLT-4 leukemia
[54] = tested on: HCC-2998 colon
[55] = tested on: HOP-92 NSCLC
[56] = tested on: OVCAR-4 ovarian
[57] = tested on: TK-10 renal
[58] = tested on: SF-539 CNS

CCOC(=O)C1(O)C(=O)C2=C3C(=O)OC(C4OC(=O)c5c(c(O)c(O)c(O)c5C31)-c1c(cc(O)c(O)c1O)C(=O)OC1COC(=O)c3cc(O)c(O)c(O)c3-c3c(cc(O)c(O)c3O)C(=O)OC14)[C@@H]2O (stereo not given in full)
TGI [1]: 37.8 µM
TGI [2]: 39.4 µM
TGI [3]: > 100 µM
TGI [4]: 85.4 µM
TGI [5]: > 100 µM
TGI [6]: 43.1 µM
TGI [7]: 40.1 µM
TGI [8]: > 100 µM
TGI [9]: 43 µM
TGI [10]: 27.8 µM
TGI [11]: 51.3 µM
TGI [12]: 52.6 µM
TGI [13]: > 100 µM
TGI [14]: 72.7 µM
TGI [15]: > 100 µM
TGI [16]: 95.8 µM
TGI [17]: 30.8 µM
TGI [18]: 35.2 µM
TGI [19]: 35.4 µM
TGI [20]: 54.5 µM
TGI [21]: 35.4 µM
TGI [22]: > 100 µM
TGI [23]: 79.5 µM
TGI [24]: 56.9 µM
TGI [25]: 44.4 µM
TGI [26]: 85 µM
TGI [27]: 39.5 µM
TGI [28]: > 100 µM
TGI [29]: 39.5 µM
TGI [30]: > 100 µM
TGI [31]: > 100 µM
TGI [32]: > 100 µM
TGI [33]: 33.4 µM
TGI [34]: 67.6 µM
TGI [35]: > 100 µM
TGI [36]: 94.7 µM
TGI [37]: 38.4 µM
TGI [38]: 61.5 µM
TGI [39]: 35.3 µM
TGI [40]: > 100 µM
TGI [41]: 36.8 µM
TGI [42]: 44.2 µM
TGI [43]: 39.3 µM
TGI [44]: 40.8 µM
TGI [45]: 53.6 µM
TGI [46]: > 100 µM
TGI [47]: 52.9 µM
TGI [48]: > 100 µM
TGI [49]: 48.6 µM
TGI [50]: 25.9 µM
TGI [51]: 36.1 µM
TGI [52]: > 100 µM
TGI [53]: 57.2 µM
TGI [54]: 95.4 µM
TGI [55]: 86.5 µM
TGI [56]: 45.1 µM

CC1(C)OC2C(CO)OC(n3cnc(N)nc3=O)C2O1 (stereo not given)
TGI [1]: > 100 µM
TGI [2]: > 100 µM
TGI [3]: > 100 µM
TGI [4]: > 100 µM
TGI [5]: > 100 µM
TGI [6]: > 100 µM
TGI [7]: > 100 µM
TGI [9]: > 100 µM
TGI [10]: > 100 µM
TGI [12]: > 100 µM
TGI [13]: > 100 µM
TGI [14]: > 100 µM
TGI [57]: > 100 µM
TGI [15]: > 100 µM
TGI [17]: > 100 µM
TGI [18]: > 100 µM
TGI [19]: > 100 µM
TGI [20]: > 100 µM
TGI [21]: > 100 µM
TGI [22]: > 100 µM
TGI [23]: > 100 µM
TGI [24]: > 100 µM
TGI [25]: > 100 µM
TGI [26]: > 100 µM
TGI [27]: > 100 µM
TGI [28]: > 100 µM
TGI [29]: > 100 µM
TGI [30]: > 100 µM
TGI [31]: > 100 µM
TGI [32]: > 100 µM
TGI [33]: > 100 µM
TGI [34]: > 100 µM
TGI [35]: > 100 µM
TGI [36]: > 100 µM
TGI [37]: > 100 µM
TGI [38]: > 100 µM
TGI [39]: > 100 µM
TGI [40]: > 100 µM
TGI [41]: > 100 µM
TGI [42]: > 100 µM
TGI [43]: > 100 µM
TGI [44]: > 100 µM
TGI [45]: > 100 µM
TGI [46]: > 100 µM
TGI [47]: > 100 µM
TGI [48]: > 100 µM
TGI [49]: > 100 µM
TGI [50]: > 100 µM
TGI [51]: > 100 µM
TGI [52]: > 100 µM
TGI [53]: > 100 µM
TGI [54]: > 100 µM
TGI [55]: > 100 µM
TGI [58]: > 100 µM
